Tests used:
[1] = Tacrolimus concentration in oral fluid and whole blood of kidney transplant recipients by LC-MS/MS (Example 1 patient samples); type: in vivo, human
Description: The chromatographic conditions were optimized and the gradient elution described here provided the best separation of TAC and IS from suppressing phospholipid ions. Chromatographic separation was achieved using a mobile phase which consisted of water containing 2 mM ammonium acetate/0.1% (v/v) formic acid (solvent A); and MeOH containing 2 mM ammonium acetate/0.1% (v/v) formic acid (solvent B). The mobile phase was delivered at 0.4 mL/min flow rate. The run cycle started at 50% solvent (B) and increased gradually to 98% over 0.5 min and was maintained at this level until 1.8 min. To re-equilibrate the column for the next run, solvent (B) decreased within 0.1 min to 50% and remained at 50% until the end of the run at 2.2 minutes. The diversion valve was set to deliver the first 0.70 min and from 1.20 min until the end of each run to waste. The elution time of TAC and IS was 1.0 min.
Mass spectrometry detection and quantification of TAC and ASC was performed in positive electrospray ionization (ESI) and multiple reaction monitoring (MRM) modes. Intellistart tool was used to obtain initial mass spectrometry parameters in low mass resolution analysis mode followed by manual tuning to achieve highest possible sensitivity. Final mass spectrometry parameters were as following: collision energy (CE)=22 and 20 for ASC and TAC respectively, cone voltage (CV)=28, capillary voltage (kV)=1.50, source temperature (° C.)=150, cone gas flow (L/hr)=25, desolvation gas flow (L/hr)=1000, and collision gas flow (mL/min)=0.15. Ammonium adducts [M+NH4]^+ were selected as precursors for MRM with transitions (m/z, Q1→Q3) of (m/z, 809.30→756.30) and (m/z, 821.30→768.35) for ASC and TAC, respectively.
Study protocols were approved by Institutional Review Board at Rhode Island Hospital (Providence, R.I.). After giving informed consent, kidney transplant recipients attending kidney transplant clinics were recruited. […] All blood and OF samples were kept on ice until transferred to the Biomedical and Pharmaceutical Sciences (BPS) department at University of Rhode Island and stored at −80° C. until analyzed. […]

[2] = Tacrolimus concentration in paired oral fluid and blood samples, all samples of Example 2; type: in vivo, human
From the text: Study population: Samples included in this study were collected during two clinical studies from stable kidney transplant recipients. Protocol for each clinical study was approved by the Institutional Review Board of Rhode Island Hospital (Providence, R.I.). On the study day, all patients underwent a physical examination by the study physician and were asked to sign an informed consent prior to sample collection. All patients were on a triple immunosuppressant regimen that included tacrolimus, prednisone, and mycophenolic acid. All blood and OF samples were kept on dry ice until transfer to the Clinical Pharmacokinetics Research Laboratory at the University of Rhode Island and subsequent storage at −80° C. until further analysis.
Upon thawing saliva samples, an aliquot of saliva was weighed with an analytical balance and the weight was recorded to establish the drug concentration as pg/mg weight. Moreover, the pH of saliva was measured by an Orion STAR A111 pH meter equipped with Micro Electrode from Thermo Scientific (Waltham, Mass., USA). To assess and quantify possible blood contamination of OF, a transferrin kit from Salimetrics LLC (State College, Pa., USA) was used (the validated assay range is ≤6.6 mg/dL). Transferrin (TRNs) is a plasma protein (Mw=76,000) that is used as a biomarker for presence of blood in OF. Transferrin quantification was performed using SpectraMax M5e Microplate Reader (Sunnyvale, Calif., USA).
(§1) Sample extraction was preformed mixing 200 μL of the blood sample with 800 μL of precipitating solution [ZnSO4 (17.28 g/L) in water and methanol (30:70, v/v) containing 100 ng/mL ascomycin as internal standard]. After vortex mixing, samples were centrifuged for 10 min at 13,000 rpm.
(§2) The concentration of tacrolimus in OF was measured using a validated LC-MS/MS method. […] TAC was eluted by gradient elution with 2 mM ammonium acetate/0.1 formic acid in water (mobile phase A) and in methanol (mobile phase B) at 0.4 mL/min flow rate. Initial mobile phase comprised of 50% solvent B, increased gradually to 98% over 0.5 min and maintained at this level until 1.8 min. Then mobile phase was returned to initial conditions within 10 s and maintained until the end of the run at 2.2 min to recondition the column for the next run. The elution time of TAC and internal standard was 1.0 min.
(§3) A simple sample preparation and extraction procedure was followed. Briefly, 50 μL of homogenized OF sample was added to 100 μL of ACN precipitating solvent containing internal standard (ascomycin, 600 ng/L). After vortex mixing for 10 s, the mixture was centrifuged at 10,000 g for 5 min at 20° C. The supernatant was then transferred to an auto-sampler vial, and 10 μL was injected onto LC-MS/MS. The dynamic range of the assay was 30-4,800 pg/mL. […] The lower limit of quantification (LLOQ) for the assay was set at […] Acceptance criteria for quality controls (QCs) included in the assay was accuracy between 85-115% and CV <15%. Selectivity was assessed by inspecting the presence of noise or peaks in chromatograms blank OF samples injections (from 6 donors) and a comparison with LLOQ chromatogram.

[3] = Study A: 12-hour profile of tacrolimus in oral fluid and blood; type: in vivo, human; conditions: for OF/blood Conc. (*100) / Tacrolimus Conc. in OF / Tacrolimus blood Conc.: geometric mean (95% CI)
Description: Study A. Characterization of 12-hour profile of tacrolimus in OFs: The objective of this study was to obtain parallel blood and saliva samples for 12 h after the morning dose tacrolimus. On the morning of the study day, a venous blood sample (about 4 mL) was collected in ethylenediaminetetraacetic acid (EDTA) coated tubes. Simultaneously, OF samples were collected by passive drool (resting) in a siliconized plastic cup. After the administration of morning dose of immunosuppressive agents including tacrolimus, serial samples were collected at certain time points post-dose for 12-hour. All patients fasted overnight but prior to the start of sample collection, took a protein bar with their morning medication together with a glass of water. Thus, the samples obtained in this study was regarded as samples collected at non-fasting state.
as §1, §2, §3

[4] = Study B: effect of oral fluid sample collection method on tacrolimus concentration; type: in vivo, human; conditions: geometric mean (95% CI)
Description: Study B. Characterization of the effect of OF sample collection method: Blood samples were collected at pre-dose (C0) and then at two-hour after dose (C2). Patients have arrived at the hospital after an overnight fast and were remained fasted during collection of C0 samples. Matching OF samples were collected within ±5 min from blood sample time by passive drool (resting sample), after mouth rinsing with water (rinsed sample), and immediately after taking a sour candy to stimulate saliva production (stimulated sample). For the following samples, patients were asked to place a small piece of a commercial candy containing citric and tartaric acids (Sour Patch Kids, Mondelēz International, East Hanover, N.J., USA) in their mouth for 10 s with continues tongue movement. After C0 samples collection, patients were given a voucher for breakfast and were asked to report back to the study location shortly before sample collection at two-hour after dose (C2). The same process of blood and corresponding OF sample collection was followed at this time. The C2 samples were regarded as fed state.
as §1, §2, §3

[5] = Stability studies of TAC in oral fluid QC samples; type: physicochemical, human; conditions: for Stability, % Accuracy, Bench top / Stability, % Accuracy, Short-term 1 weeks / Stability, % Accuracy, Short-term 4 weeks / Stability, % Accuracy, Freeze & thaw / Stability, % Accuracy, Auto-sampler 24 hrs / Stability, % Accuracy, Auto-sampler 48 hrs: N = 3; for Stability, % Accuracy, Short-term 1 weeks / Stability, % Accuracy, Short-term 4 weeks: storage at −80° C.; for Stability, % Accuracy, Freeze & thaw: three freeze and thaw cycles; for Stability, % Accuracy, Auto-sampler 24 hrs / Stability, % Accuracy, Auto-sampler 48 hrs: extracted
Description: Stability studies were performed by measuring TAC concentrations in QC1 and QC3, in three replicates. Freeze and thaw (after three freeze and thaw cycles), bench-top, auto-sampler (by re-injecting one of validation batch after it was left in the auto-sampler for 24 h and 48 h), and short-term stability up to one month were investigated.

[6] = cited from earlier work

SMILES: C=CC[C@@H]1/C=C(\C)C[C@H](C)C[C@H](OC)[C@H]2O[C@@](O)(C(=O)C(=O)N3CCCC[C@H]3C(=O)O[C@H](/C(C)=C/[C@@H]3CC[C@@H](O)[C@H](OC)C3)[C@H](C)[C@@H](O)CC1=O)[C@H](C)C[C@@H]2OC.O [Tacrolimus]
- Concentration of TAC in OF (range) ([1]; 181 OF samples, stable transplant recipients): 0.0117 to 2.8644 ng/mL
- Calculated concentration of the one OF sample lower than LLOQ ([1]; one of 181 OF samples): around 8.5 pg/mL
- Concentration of TAC in whole blood (range) ([1]; stable transplant recipients): 1.7 to 46.1 ng/mL
- Tacrolimus concentration in blood (mean±SD) ([2]; 276 paired samples): 7.4 ± 5 ng/mL
- Tacrolimus concentration in blood (median) ([2]; 276 paired samples): 5.9 ng/mL
- Concentration of tacrolimus in OFs (mean±SD) ([2]; homogenized OFs): 0.744 ± 0.666 ng/mL
- Concentration of tacrolimus in OFs (median) ([2]; homogenized OFs): 0.505 ng/mL
- Concentration of tacrolimus corrected for the weight of homogenized OF (mean±SD) ([2]; in vivo): 540 ± 485 pg/mg
- Concentration of tacrolimus corrected for the weight of homogenized OF (median) ([2]; in vivo): 367 pg/mg
- Concentration of TAC in blood ([3]; 80 paired samples, 10 patients, fed state): 5.7 ± 2.6 ng/mL
- Concentration of TAC in oral fluids ([3]; 80 paired samples, 10 patients, passive drool, fed state): 0.885 ± 0.65 ng/mL
- OF/blood Conc. (*100) ([3]; All other times): 14 (11, 16)
- Tacrolimus Conc. in OF ([3]; All other times): 783 (627, 878) pg/mL
- Tacrolimus blood Conc. ([3]; All other times): 5.5 (5.0, 5.9) ng/mL
- OF/blood Conc. (*100) ([3]; Peak (C2)): 11 (7, 16)
- Tacrolimus Conc. in OF ([3]; Peak (C2)): 573 (411, 599) pg/mL
- Tacrolimus blood Conc. ([3]; Peak (C2)): 5.5 (4.6, 6.5) ng/mL
- OF/blood Conc. (*100) ([3]; Trough (C0, incl. C12)): 11 (7, 18)
- Tacrolimus Conc. in OF ([3]; Trough (C0, incl. C12)): 430 (272, 680) pg/mL
- Tacrolimus blood Conc. ([3]; Trough (C0, incl. C12)): 3.8 (3.1, 4.7) ng/mL
- OF/blood Conc. (*100) ([4]; C0 (fasted), Resting): 19 (14, 24)
- Tacrolimus Conc. in OF ([4]; C0 (fasted), Resting): 1003 (747, 1348) pg/mL
- Tacrolimus blood Conc. ([4]; C0 (fasted), Resting): 5.5 (4.7, 6.3) ng/mL
- OF/blood Conc. (*100) ([4]; C0 (fasted), Rinsed): 11 (9, 13)
- Tacrolimus Conc. in OF ([4]; C0 (fasted), Rinsed): 584 (436, 782) pg/mL
- Tacrolimus blood Conc. ([4]; C0 (fasted), Rinsed): 5.4 (4.7, 6.3) ng/mL
- OF/blood Conc. (*100) ([4]; C0 (fasted), Stimulated): 3 (2, 4)
- Tacrolimus Conc. in OF ([4]; C0 (fasted), Stimulated): 164 (119, 226) pg/mL
- Tacrolimus blood Conc. ([4]; C0 (fasted), Stimulated): 5.5 (4.8, 6.2) ng/mL
- OF/blood Conc. (*100) ([4]; C2 (fed), Resting): 7 (5, 9)
- Tacrolimus Conc. in OF ([4]; C2 (fed), Resting): 635 (437, 923) pg/mL
- Tacrolimus blood Conc. ([4]; C2 (fed), Resting): 9.4 (7.6, 11.7) ng/mL
- OF/blood Conc. (*100) ([4]; C2 (fed), Rinsed): 5 (4, 7)
- Tacrolimus Conc. in OF ([4]; C2 (fed), Rinsed): 468 (347, 630) pg/mL
- Tacrolimus blood Conc. ([4]; C2 (fed), Rinsed): 9.0 (7.4, 11.0) ng/mL
- OF/blood Conc. (*100) ([4]; C2 (fed), Stimulated): 3 (2, 4)
- Tacrolimus Conc. in OF ([4]; C2 (fed), Stimulated): 235 (167, 330) pg/mL
- Tacrolimus blood Conc. ([4]; C2 (fed), Stimulated): 8.8 (7.6, 10.2) ng/mL
- Stability, % Accuracy, Bench top ([5]; QC1 (30 pg/mL) in OF): 111.1%
- Stability, % Accuracy, Short-term 1 weeks ([5]; QC1 (30 pg/mL) in OF): 98.4%
- Stability, % Accuracy, Short-term 4 weeks ([5]; QC1 (30 pg/mL) in OF): 100.8%
- Stability, % Accuracy, Freeze & thaw ([5]; QC1 (30 pg/mL) in OF): 108.2%
- Stability, % Accuracy, Auto-sampler 24 hrs ([5]; QC1 (30 pg/mL)): 105.3%
- Stability, % Accuracy, Auto-sampler 48 hrs ([5]; QC1 (30 pg/mL)): 102.5%
- Stability, % Accuracy, Bench top ([5]; QC3 (1200 pg/mL) in OF): 98.8%
- Stability, % Accuracy, Short-term 1 weeks ([5]; QC3 (1200 pg/mL) in OF): 98.9%
- Stability, % Accuracy, Short-term 4 weeks ([5]; QC3 (1200 pg/mL) in OF): 102.9%
- Stability, % Accuracy, Freeze & thaw ([5]; QC3 (1200 pg/mL) in OF): 111.9%
- Stability, % Accuracy, Auto-sampler 24 hrs ([5]; QC3 (1200 pg/mL)): 102.2%
- Stability, % Accuracy, Auto-sampler 48 hrs ([5]; QC3 (1200 pg/mL)): 105.6%
- Stability in extracted matrix ([5]; auto-sampler, up to 48 h): stable in extracted matrix for up to 48 h
- Fraction of tacrolimus distributed into red blood cells [6]: About 85%
- Fraction of total TAC in blood present as free (unbound) form [6]: 1%

Source: patent publication US10126316B2, “Systems and methods for the measurement of tacrolimus in oral fluids by liquid chromatography tandem mass spectrometry” (Rhode Island Council on Postsecondary Education, Statutory …, priority 2016, dated 2018)
